Entries after “also recorded” stand apart in the source; their conditions may differ.
Experiments:
Format in all cases: cell-based, human
E006AA cells [1] = test: Clonogenic assay
Method: Clonogenic assay: PCa cells were seeded in each well of 6 well cell culture plates. Cells were treated and plates were incubated in a CO2 cell culture incubator for 6 more days. Colonies were fixed in 10% formalin first and stained with 0.5% crystal violet solution. Plates were dried and pictures were captured using a Gel documentation system and Coomassie blue filter (Bio Rad, Hercules, Calif.).

E006AA cells [2] = test: Cell death quantification, Trypan blue exclusion assay; details: combined treatment with DOC (24 hrs)
Method: Cell viability assay: PCa cells (5×10^4 cells/well) were seeded on 6-well cell culture plates and incubated with DOC (1-20 nM) for 24 hrs. Floating and attached cells were collected using trypsinization. Live and dead cells were counted under a light microscope using a trypan blue exclusion assay.

[3] = tested on: Nrf1 nuclear translocation in E006AA cells; test: Immunoblot analysis of Nrf1 in cytosolic and nuclear fractions
Method: Subcellular fractionation for the preparation of cytosolic and nuclear fractions: Cells were seeded on 10 cm cell culture plates for treatment. Cells were harvested via gently scraping. Cells were collected using centrifugation and washed twice with ice cold PBS. Cells were resuspended in cytosolic buffer (10 mM HEPES, pH 7.4; 10 mM KCl; 0.1 mM EDTA; 0.1 mM EGTA) supplemented with freshly added 1× protease inhibitor cocktail and 1 mM DTT. Cells were incubated in cytosolic buffer for 15 min in ice and 10% NP40 was added (12.4 μl 10% NP40 per 200 μl volume of cytosolic buffer) followed by vigorous vortexing for 45 sec. Cell homogenates were centrifuged at 14000 rpm for 2 min. The supernatant was collected in new tubes and stored as the cytosolic fraction. The nuclear pellet was washed 3 times with cytosolic buffer and lysed in nuclear lysis buffer (10 mM HEPES, 500 mM NaCl, 1 mM EDTA, 1 mM EGTA, 1% NP40) to prepare nuclear extract. Immunoblotting: Immunoblotting was performed as described previously. Protein lysates were prepared using a lysis in NP-40 buffer (50 mM Tris-HCl pH 7.4, 150 mM NaCl, 1 mM EDTA, 1 mM EGTA, 1% NP-40) supplemented with protease and phosphatase inhibitor cocktail. Protein content was quantified using a micro BCA protein estimation kit (Thermo Scientific, Waltham, Mass.; Cat #23235). Protein samples were resolved on 4-20% Criterion gels, transferred on nitrocellulose membranes (BioRad, Hercules, Calif.) and subjected to immunoblotting. Membranes were blocked in 5% fat free dry milk (Blotto, Santa Cruz, Dallas, Tex.; Cat #sc-2324) prepared in PBS-T (Tween-20) and incubated overnight in primary antibodies (1:1000 dilution) at 4° C. with continuous shaking. After washing with PBS-T, membranes were incubated in HRP conjugated anti-mouse or anti-rabbit secondary antibody at room temperature for 1 hr. After washing with PBS-T, proteins were detected using Clarity chemiluminescent reagent (BioRad, Hercules, Calif.; Cat #1705061) and X-Ray films (ASI, Fort Lauderdale, Fla.; Cat #XR1570). Membranes were stripped using stripping buffer and probed with HRP conjugated beta-actin antibody to ensure equal loading of proteins.

E006AA cells [4] = test: Seahorse XF bioenergetics assay, glycolytic reserve capacity; details: for glycolytic reserve capacity: in the presence of DOC, compared to control or DOC alone
Method: Seahorse XF bioenergetics assay: Basal glycolytic reserve capacity in PC-3, DU145, and […] PCa cells was assessed using an Agilent seahorse XF glycolytic stress test kit (Agilent Technologies Inc., Wilmington, Del.) and a Seahorse XF96 analyzer (Agilent Technologies Inc., Wilmington, Del.) analyzer as described. ATP production in […] cells after treatment with drug combinations was assessed using a Mito Stress test kit (Agilent Technologies Inc., Wilmington, Del.).

E006AA cells [5] = test: Immunoblot analysis of CC, cleaved PARP and cleaved caspase-3 in whole cell lysates; details: for CC expression: combined treatment with DOC (10 nM, 24 hrs), c-Myc I 75 μM, NF-κB I 50 μM, AKT Act 5 μM
Method: (§1) Immunoblotting: Immunoblotting was performed as described previously. Protein lysates were prepared using a lysis in NP-40 buffer (50 mM Tris-HCl pH 7.4, 150 mM NaCl, 1 mM EDTA, 1 mM EGTA, 1% NP-40) supplemented with protease and phosphatase inhibitor cocktail. Protein content was quantified using a micro BCA protein estimation kit (Thermo Scientific, Waltham, Mass.; Cat #23235). Protein samples were resolved on 4-20% Criterion gels, transferred on nitrocellulose membranes (BioRad, Hercules, Calif.) and subjected to immunoblotting. Membranes were blocked in 5% fat free dry milk (Blotto, Santa Cruz, Dallas, Tex.; Cat #sc-2324) prepared in PBS-T (Tween-20) and incubated overnight in primary antibodies (1:1000 dilution) at 4° C. with continuous shaking. After washing with PBS-T, membranes were incubated in HRP conjugated anti-mouse or anti-rabbit secondary antibody at room temperature for 1 hr. After washing with PBS-T, proteins were detected using Clarity chemiluminescent reagent (BioRad, Hercules, Calif.; Cat #1705061) and X-Ray films (ASI, Fort Lauderdale, Fla.; Cat #XR1570). Membranes were stripped using stripping buffer and probed with HRP conjugated beta-actin antibody to ensure equal loading of proteins.

E006AA cells [6] = test: Immunoblot analysis of CC in cytosolic and mitochondrial fractions; details: in combination with DOC (24 hrs)
Method: Subcellular fractionation for the preparation of cytosolic and mitochondrial fractions: Cells were seeded on 15 cm cell culture plates followed by treatment with various compounds for the preparation of cytosolic and mitochondrial fractions as described. Cells were harvested via gentle scraping, washed twice with ice cold 1×PBS, and resuspended in homogenization buffer (20 mM HEPES, pH 7.4; 10 mM KCl; 1.5 mM MgCl2; 1 mM EDTA; 1 mM EGTA; 250 mM sucrose) supplemented with freshly added 1× protease inhibitor cocktail and 1 mM DTT. Cells were incubated in homogenization buffer for 30 min in ice and homogenized using a dounce homogenizer (˜25 strokes using pestle A). Cell homogenates were pre-cleared of unbroken cells and debris using centrifugation at 1000 g for 10 min. The supernatant was collected in new tubes and centrifuged at 12000 rpm for 20 min to obtain a mitochondrial pellet, which was washed 3 times with homogenization buffer and lysed in NP40 buffer, and stored as the mitochondrial fraction. The supernatant was ultra-centrifuged to obtain purified cytosol.
as §1

[7] = combined treatment with DOC (24 hrs)

| Compound | colony forming ability (CFA) (E006AA cells [1]; with DOC) | colony forming ability (CFA) (E006AA cells [1]; without DOC) | cell death (E006AA cells [2]) | translocation of Nrf1 to nucleus ([3]; agent alone) | translocation of Nrf1 to nucleus ([3]; combined with DOC (24 hrs)) | glycolytic reserve capacity (E006AA cells [4]) | PARP cleavage (E006AA cells [5]; agent alone) | CC expression (E006AA cells [5]) | PARP cleavage (E006AA cells [5]; [7]) | CC release (E006AA cells [6]) | glycolytic reserve (E006AA cells [4]; agent alone) |
| --- | --- | --- | --- | --- | --- | --- | --- | --- | --- | --- | --- |
| CCc1ccc(/C=C2/SC(=S)NC2=O)cc1 [c-Myc inhibitor, 10058-F4] | reduced the CFA | reduced the CFA | enhanced cell death | Enhanced translocation of Nrf1 to nucleus | Enhanced translocation of Nrf1 to nucleus | inhibited glycolytic reserve capacity | only a modest increase | Increased CC expression | PARP cleavage | CC release only in combination treatment; also recorded: resulted in CC release | – |
| bisperoxovanadium 5-hydroxipyridine [AKT activator] | reduced the CFA | reduced the CFA | enhanced cell death | Enhanced translocation of Nrf1 to nucleus | Enhanced translocation of Nrf1 to nucleus | inhibited glycolytic reserve capacity | only a modest increase | Increased CC expression | PARP cleavage | CC release only in combination treatment; also recorded: resulted in CC release | inhibited glycolytic reserve |
| Cc1ccc(NCCCc2ccccc2)c(N)c1 [NF-κB inhibitor, JSH-23] | reduced the CFA | reduced the CFA | enhanced cell death | Enhanced translocation of Nrf1 to nucleus | Enhanced translocation of Nrf1 to nucleus | inhibited glycolytic reserve capacity | only a modest increase | Increased CC expression | PARP cleavage | resulted in CC release | – |
